From patent EP0326331B1, “Substituted quinolines and cinnolines” (Dow AgroSciences LLC, priority 1988, dated 1989)

Assays:
Type in all cases: in vivo
[1] = tested on: Twospotted spider mites (Tetranychus urticae Koch); test: Mite/insect screen, SM; conditions: Tetranychus urticae, percent mortality, SAW, read-out: SM RESULTS %; for mortality at 200 ppm: SM & MA RATE 200 PPM; for mortality at 400 ppm: SM & MA RATE 400 PPM
Outline: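 Read-out: percent mortality after standard exposure periods. Test solutions were water dilutions of compound dissolved in acetone/alcohol (50:50) with emulsifier blends; leaves were sprayed to runoff on both surfaces and air-dried for one hour before exposure.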

[2] = tested on: Pseudoperonospora cubensis (downy mildew); test: Test 1 greenhouse foliar spray screen, downy mildew on squash; conditions: disease control rating, foliar spray on squash, 400 ppm (+++ at 100 ppm)
[3] = tested on: Septoria tritici (leaf blotch); test: Test 1 greenhouse foliar spray screen, leaf blotch on wheat; conditions: disease control rating, foliar spray on wheat, 400 ppm (+++ at 100 ppm)
[4] = tested on: southern armyworm (Spodopetra eridania Cramer); test: Mite/insect screen, SAW; conditions: Spodoptera eridania, percent mortality, SAW, read-out: SAW RESULTS %; for mortality at 200 ppm: SM & MA RATE 200 PPM; for mortality at 400 ppm: SM & MA RATE 400 PPM
Outline: (§1)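 Percent mortality was scored after standard exposure periods, following spraying of leaves to runoff (both surfaces, 10 psi, 1 h drying) with water dilutions of compound in emulsifier-containing acetone/alcohol (50:50). Armyworms received excised treated leaves in dishes.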

[5] = tested on: corn rootworm; test: Mite/insect screen, CRW; conditions: percent mortality, read-out: CRW RESULTS %; for mortality at 12 ppm: CRW RATE 12.00 PPM; for mortality at 24 ppm: CRW RATE 24.00 PPM
Outline: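 Corn rootworm mortality (%) was evaluated following standard exposure times. Test material was emulsified by dissolution in acetone/alcohol (1:1) containing sulfonate/nonionic emulsifier blends TOXIMUL R (23 g/L) and TOXIMUL S (13 g/L), and water-diluted to the indicated doses.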

[6] = tested on: Venturia inaequalis (apple scab); test: Test 1 greenhouse foliar spray screen, apple scab on apple seedling; conditions: disease control rating, foliar spray on apple seedling, 400 ppm (+++ at 100 ppm)
[7] = tested on: Puccinia recondita tritici (leaf rust); test: Test 1 greenhouse foliar spray screen, leaf rust on wheat; conditions: disease control rating, foliar spray on wheat, 400 ppm (+++ at 100 ppm)
[8] = tested on: Pyricularia oryzae (rice blast); test: whole plant or invertebrate; conditions: disease control rating, foliar spray on rice, 400 ppm (+++ at 100 ppm)
[9] = tested on: Botrytis cinerea (gray mold); test: Test 1 greenhouse foliar spray screen, gray mold on grape berries; conditions: disease control rating, spray on grape berries, 400 ppm (+++ at 100 ppm)
[10] = tested on: Erysiphe graminis tritici (powdery mildew); test: Test 1 greenhouse foliar spray screen, powdery mildew on wheat; conditions: disease control rating, foliar spray on wheat, 400 ppm (+++ at 100 ppm)
[11] = tested on: melon aphids (Aphis gossypii Glover); test: Mite/insect screen, MA; conditions: Aphis gossypii, percent mortality, SAW, read-out: MA RESULTS %; for mortality at 200 ppm: SM & MA RATE 200 PPM; for mortality at 400 ppm: SM & MA RATE 400 PPM
Outline: as §1

[12] = tested on: Cercospora beticola (leaf spot); test: Test 1 greenhouse foliar spray screen, leaf spot on sugar beet; conditions: disease control rating, foliar spray on sugar beet, 400 ppm (+++ at 100 ppm)

Structure (SMILES)	mortality at 200 ppm [1]	DOWN MDEW [2]	LEAF BLOT [3]	mortality at 200 ppm [4]	mortality at 12 ppm [5]	APPL SCAB [6]	LEAF RUST [7]	RICE BLAST [8]	GRAY MOLD [9]	POWD MDEW [10]	mortality at 200 ppm [11]	LEAF SPOT [12]	mortality at 400 ppm [1]	mortality at 400 ppm [4]	mortality at 24 ppm [5]	mortality at 400 ppm [11]
c1ccc(CCCNc2ccnc3ccccc23)cc1 [Example 139, N-(3-phenylpropyl)-4-quinolinamine]	0%	++ (90-100% control at 400 ppm)	- (0-19% control at 400 ppm)	0%	0%	- (0-19% control at 400 ppm)	+ (20-89% control at 400 ppm)	+ (20-89% control at 400 ppm)	- (0-19% control at 400 ppm)	+ (20-89% control at 400 ppm)	0%	- (0-19% control at 400 ppm)				
Fc1cccc2c(NCCCCc3ccc(Cl)cc3)ccnc12 [Example 140, 8-fluoro-N-[4-(4-chlorophenyl)butyl]-4-quinolinamine]	0%	+++ (90-100% control at 100 ppm)	+++ (90-100% control at 100 ppm)	0%	0%	+ (20-89% control at 400 ppm)	+++ (90-100% control at 100 ppm)	+++ (90-100% control at 100 ppm)	- (0-19% control at 400 ppm)	+ (20-89% control at 400 ppm)	0%	+++ (90-100% control at 100 ppm)	0%	60%	0%	0%
Fc1cccc2c(NCCC3=CCCCC3)ccnc12 [Example 143, N-[2-(1-cyclohexenyl)ethyl]-8-fluoro-4-quinolinamine]	0%	+++ (90-100% control at 100 ppm)	+ (20-89% control at 400 ppm)	0%	0%	- (0-19% control at 400 ppm)	+++ (90-100% control at 100 ppm)	++ (90-100% control at 400 ppm)	- (0-19% control at 400 ppm)	++ (90-100% control at 400 ppm)	0%	+ (20-89% control at 400 ppm)	0%	0%	0%	0%
Cc1cc(C)c2nccc(NCCC3=CCCCC3)c2c1 [Example 144, N-[2-(1-cyclohexenyl)ethyl]-6,8-dimethyl-4-quinolinamine]	0%	+++ (90-100% control at 100 ppm)	- (0-19% control at 400 ppm)	0%	0%	+ (20-89% control at 400 ppm)	++ (90-100% control at 400 ppm)	+ (20-89% control at 400 ppm)	- (0-19% control at 400 ppm)	- (0-19% control at 400 ppm)	0%	+ (20-89% control at 400 ppm)	0%	0%	0%	0%
CCc1ccc2nccc(NCCC3=CCCCC3)c2c1 [Example 145, N-[2-(1-cyclohexenyl)ethyl]-6-ethyl-4-quinolinamine]	0%	+++ (90-100% control at 100 ppm)	- (0-19% control at 400 ppm)	0%	0%	- (0-19% control at 400 ppm)	+ (20-89% control at 400 ppm)	+ (20-89% control at 400 ppm)	- (0-19% control at 400 ppm)	- (0-19% control at 400 ppm)	0%	+ (20-89% control at 400 ppm)	0%	0%	0%	0%
c1csc(CCNc2ccnc3ccccc23)c1 [Example 147, N-[2-(2-thienyl)ethyl]-4-quinolinamine]	0%	+++ (90-100% control at 100 ppm)	- (0-19% control at 400 ppm)	0%	0%	- (0-19% control at 400 ppm)	+ (20-89% control at 400 ppm)	+ (20-89% control at 400 ppm)	- (0-19% control at 400 ppm)	- (0-19% control at 400 ppm)	0%	- (0-19% control at 400 ppm)				
c1ccc2c(NCCc3ccsc3)ccnc2c1 [Example 148, N-[2-(3-thienyl)ethyl]-4-quinolinamine]	0%	++ (90-100% control at 400 ppm)	- (0-19% control at 400 ppm)	0%	0%	- (0-19% control at 400 ppm)	+ (20-89% control at 400 ppm)	+ (20-89% control at 400 ppm)	- (0-19% control at 400 ppm)	- (0-19% control at 400 ppm)	0%	+ (20-89% control at 400 ppm)				
Fc1cc(F)c2nccc(NCCc3cccs3)c2c1 [Example 149, 6,8-difluoro-N-[2-(2-thienyl)ethyl]-4-quinolinamine]	0%	++ (90-100% control at 400 ppm)	+ (20-89% control at 400 ppm)	0%	0%	- (0-19% control at 400 ppm)	++ (90-100% control at 400 ppm)	+ (20-89% control at 400 ppm)	- (0-19% control at 400 ppm)	+ (20-89% control at 400 ppm)	0%	+++ (90-100% control at 100 ppm)				
